US12030904B2 (priority 2020, dated 2024)
Where two headings read alike, the source gives them in different places.

How the values were obtained:
MT4 cytotoxicity (CC50) = settings: human, MT4 cells
SARS-CoV-2 = assay: microbe, parasite or virus in culture; format: cell-based
[1] = system: Recombinant Respiratory Syncytial virus strain A2 containing the firefly luciferase reporter (RSV-Fluc); assay: microbe, parasite or virus in culture; format: cell-based; settings: human respiratory syncytial virus, NHBE
[2] = Severe acute respiratory syndrome coronavirus 2, read-out: SARS EC50
[3] = 72 h, read-out: RSV-Fluc EC50 (NHBE), NHBE cells, three days, Table 2
[4] = Severe acute respiratory syndrome coronavirus 2, 48 h, read-out: SARS-CoV-2 EC50
[5] = 72 h, read-out: RSV-Fluc EC50 (NHBE), NHBE cells, three days, Table 1

Row | Structure (SMILES) | CC50 (MT4 cytotoxicity (CC50); MT4 CC50, Table 2a) [nM] | EC50 (SARS-CoV-2; [2]) [nM] | EC50 [1, 3] [nM] | EC50 ([1]; read-out: RSV EC50, Table 2a) [nM] | CC50 (MT4 cytotoxicity (CC50); MT4 CC50, Table 1a) [nM] | EC50 (SARS-CoV-2; [4]) [nM] | EC50 [1, 5] [nM] | CC50 (MT4 cytotoxicity (CC50); MT4 CC50, Table 4) [nM] | EC50 ([1]; read-out: RSV EC50, Table 4) [nM]
1 | CCCCCCCCCCCCCCCCCCOC[C@H](COP(=O)(O)OC[C@H]1O[C@@](C#N)(c2ccc3c(N)ncnn23)[C@H](O)[C@@H]1O)OC(C)c1ccccc1 (single isomer, unassigned) [Example 27] | 614 | 2000 | 110 | 113 |  |  |  |  | 
2 | CCCCCCCCCCCCCCCCCOC[C@H](COP(=O)(O)OC[C@H]1O[C@@](C#N)(c2ccc3c(N)ncnn23)[C@H](O)[C@@H]1O)OCc1ccccc1 [Example 6, ((2R,3S,4R,5R)-5-(4-aminopyrrolo[2,1-f][1,2,4]triazin-7-yl)-5-cyano-3,4-dihydroxytetrahydrofuran-2-yl)methyl ((R)-2-(benzyloxy)-3-(heptadecyloxy)propyl) hydrogen phosphate] |  |  |  |  | 4150 | 950 | 80 |  | 
3 | CCCCCCCCCCCCCCCCCCOC[C@H](COP(=O)(O)OC[C@H]1O[C@@](C#N)(c2ccc3c(N)ncnn23)[C@H](O)[C@@H]1O)OCc1ccc(F)c(Cl)c1 [Example 17] |  |  |  |  | 2100 | 690 | 20 |  | 
4 | CCCCCCCCCCCCCCCCCCOC[C@H](COP(=O)(O)OC[C@H]1O[C@@](C#N)(c2ccc3c(N)ncnn23)[C@H](O)[C@@H]1O)OCc1cc(F)cc(C(F)(F)F)c1 [Example 19, ((2R,3S,4R,5R)-5-(4-aminopyrrolo[2,1-f][1,2,4]triazin-7-yl)-5-cyano-3,4-dihydroxytetrahydrofuran-2-yl)methyl ((R)-2-((3-fluoro-5-(trifluoromethyl)benzyl)oxy)-3-(octadecyloxy)propyl) hydrogen phosphate] | 541 | 2800 | 180 | 182 |  |  |  |  | 
5 | CCCCCCCCCCCCCCCCCCOC[C@H](COP(=O)(O)OC[C@H]1O[C@@](C#N)(c2ccc3c(N)ncnn23)[C@H](O)[C@@H]1O)OCc1ccsc1 [Example 20, ((2R,3S,4R,5R)-5-(4-aminopyrrolo[2,1-f][1,2,4]triazin-7-yl)-5-cyano-3,4-dihydroxytetrahydrofuran-2-yl)methyl ((R)-3-(octadecyloxy)-2-(thiophen-3-ylmethoxy)propyl) hydrogen phosphate] | 13200 | 264 | 76 | 76 |  |  |  |  | 
6 | CCCCCCCCCCCCCCCCCCOC[C@](C)(COP(=O)(O)OC[C@H]1O[C@@](C#N)(c2ccc3c(N)ncnn23)[C@H](O)[C@@H]1O)OCc1ccccc1 [Example 21, ((2R,3S,4R,5R)-5-(4-aminopyrrolo[2,1-f][1,2,4]triazin-7-yl)-5-cyano-3,4-dihydroxytetrahydrofuran-2-yl)methyl ((R)-2-(benzyloxy)-2-methyl-3-(octadecyloxy)propyl) hydrogen phosphate] | 50000 | 1740 | 76 | 77 |  |  |  |  | 
7 | CCCCCCCCCCCCCCCCCCOC[C@@H](CCc1ccccc1)COP(=O)(O)OC[C@H]1O[C@@](C#N)(c2ccc3c(N)ncnn23)[C@H](O)[C@@H]1O [Example 22, ((2R,3S,4R,5R)-5-(4-aminopyrrolo[2,1-f][1,2,4]triazin-7-yl)-5-cyano-3,4-dihydroxytetrahydrofuran-2-yl)methyl ((R)-2-((octadecyloxy)methyl)-4-phenylbutyl) hydrogen phosphate] | 26400 | 5220 | 160 | 158 |  |  |  |  | 
8 | CCCCCCCCCCCCCCCCCCOC[C@H](COP(=O)(O)OC[C@H]1O[C@@](C#N)(c2ccc3c(N)ncnn23)[C@H](O)[C@@H]1O)OCc1ccc(C#N)c(Cl)c1 [Example 23, ((2R,3S,4R,5R)-5-(4-aminopyrrolo[2,1-f][1,2,4]triazin-7-yl)-5-cyano-3,4-dihydroxytetrahydrofuran-2-yl)methyl ((R)-2-((3-chloro-4-cyanobenzyl)oxy)-3-(octadecyloxy)propyl) hydrogen phosphate] | 723 | 459 | 30 | 30 |  |  |  |  | 
9 | CC(C)CCCCCCCCCCCCCCOC[C@H](COP(=O)(O)OC[C@H]1O[C@@](C#N)(c2ccc3c(N)ncnn23)[C@H](O)[C@@H]1O)OCc1ccccc1 [Example 24, ((2R,3S,4R,5R)-5-(4-aminopyrrolo[2,1-f][1,2,4]triazin-7-yl)-5-cyano-3,4-dihydroxytetrahydrofuran-2-yl)methyl ((R)-2-(benzyloxy)-3-((15-methylhexadecyl)oxy)propyl) hydrogen phosphate] | 2200 | 3320 | 42 | 42 |  |  |  |  | 
10 | CCCCCCCCCCCCCCCCOCCCCOP(=O)(O)OC[C@H]1O[C@@](C#N)(c2ccc3c(N)ncnn23)[C@H](O)[C@@H]1O [Example 25, ((2R,3S,4R,5R)-5-(4-aminopyrrolo[2,1-f][1,2,4]triazin-7-yl)-5-cyano-3,4-dihydroxytetrahydrofuran-2-yl)methyl (4-(hexadecyloxy)butyl) hydrogen phosphate] | 48900 | 7460 | 70 | 263 |  |  |  |  | 
11 | CCCCCCCCCCCCCCCCCCOCC(COc1ccccc1)COP(=O)(O)OC[C@H]1O[C@@](C#N)(c2ccc3c(N)ncnn23)[C@H](O)[C@@H]1O (stereo partly drawn) [Example 29, ((2R,3S,4R,5R)-5-(4-aminopyrrolo[2,1-f][1,2,4]triazin-7-yl)-5-cyano-3,4-dihydroxytetrahydrofuran-2-yl)methyl (3-(octadecyloxy)-2-(phenoxymethyl)propyl) hydrogen phosphate] | 6160 | 3330 | 140 | 140 |  |  |  |  | 
12 | CCCCCCCCCCCCCCCCCCOC[C@H](COP(=O)(O)OC[C@H]1O[C@@](C#N)(c2ccc3c(N)ncnn23)[C@H](O)[C@@H]1O)Oc1cccc(C#N)c1 [Example 30, ((2R,3S,4R,5R)-5-(4-aminopyrrolo[2,1-f][1,2,4]triazin-7-yl)-5-cyano-3,4-dihydroxytetrahydrofuran-2-yl)methyl ((R)-2-(3-cyanophenoxy)-3-(octadecyloxy)propyl) hydrogen phosphate] | 188 | 97 | 17 | 17 |  |  |  |  | 
13 | CCCCCCCCCCCCCCCCCCOC[C@H](COP(=O)(O)OC[C@H]1O[C@@](C#N)(c2ccc3c(N)ncnn23)[C@H](O)[C@@H]1O)Oc1cc(F)cc(C#N)c1 [Example 31, ((2R,3S,4R,5R)-5-(4-aminopyrrolo[2,1-f][1,2,4]triazin-7-yl)-5-cyano-3,4-dihydroxytetrahydrofuran-2-yl)methyl ((R)-2-(3-cyano-5-fluorophenoxy)-3-(octadecyloxy)propyl) hydrogen phosphate] | 195 | 86 |  | 21 |  |  |  |  | 
14 | CCCCCCCCCCCCCCCCCCOC[C@H](COP(=O)(O)OC[C@H]1O[C@@](C#N)(c2ccc3c(N)ncnn23)[C@H](O)[C@@H]1O)OCc1cccc(C(F)F)c1 [Example 32, ((2R,3S,4R,5R)-5-(4-aminopyrrolo[2,1-f][1,2,4]triazin-7-yl)-5-cyano-3,4-dihydroxytetrahydrofuran-2-yl)methyl ((R)-2-((3-(difluoromethyl)benzyl)oxy)-3-(octadecyloxy)propyl) hydrogen phosphate] | 2660 | 3040 |  | 64 |  |  |  |  | 
15 | CCCCCCCCCCCCCCCCCCOC[C@H](COP(=O)(O)OC[C@H]1O[C@@](C#N)(c2ccc3c(N)ncnn23)[C@H](O)[C@@H]1O)OCc1ccc(C(F)F)cc1 [Example 33, ((2R,3S,4R,5R)-5-(4-aminopyrrolo[2,1-f][1,2,4]triazin-7-yl)-5-cyano-3,4-dihydroxytetrahydrofuran-2-yl)methyl ((R)-2-((4-(difluoromethyl)benzyl)oxy)-3-(octadecyloxy)propyl) hydrogen phosphate] | 8850 | 3020 |  | 77 |  |  |  |  | 
16 | CCCCCCCCCCCCCCCCCCOC[C@H](COP(=O)(O)OC[C@H]1O[C@@](C#N)(c2ccc3c(N)ncnn23)[C@H](O)[C@@H]1O)OCc1cc(F)ccc1C#N [Example 51, ((2R,3S,4R,5R)-5-(4-aminopyrrolo[2,1-f][1,2,4]triazin-7-yl)-5-cyano-3,4-dihydroxytetrahydrofuran-2-yl)methyl ((R)-2-((2-cyano-5-fluorobenzyl)oxy)-3-(octadecyloxy)propyl) hydrogen phosphate] | 2140 | 1650 |  |  |  |  |  |  | 
17 | CCCCCCCCCCCCCCCCOC[C@H](COP(=O)(O)OC[C@H]1O[C@@](C#N)(c2ccc3c(N)ncnn23)[C@H](O)[C@@H]1O)OCc1cc(F)cc(C#N)c1 [Example 119, [(2R,3S,4R,5R)-5-(4-Aminopyrrolo[2,1-f][1,2,4]triazin-7-yl)-5-cyano-3,4-dihydroxy-tetrahydrofuran-2-yl]methyl [(2R)-2-[(3-cyano-5-fluoro-phenyl)methoxy]-3-hexadecoxy-propyl] hydrogen phosphate] |  |  |  |  |  |  |  | 404 | 30
18 | CCCCCCCCCCCCCCCCCCCCOC[C@H](COP(=O)(O)OC[C@H]1O[C@@](C#N)(c2ccc3c(N)ncnn23)[C@H](O)[C@@H]1O)OCc1cc(F)cc(C#N)c1 [Example 125, ((2R,3S,4R,5R)-5-(4-aminopyrrolo[2,1-f][1,2,4]triazin-7-yl)-5-cyano-3,4-dihydroxytetrahydrofuran-2-yl)methyl ((R)-2-((3-cyano-5-fluorobenzyl)oxy)-3-(icosyloxy)propyl) hydrogen phosphate] |  |  |  |  |  |  |  | 2080 | 129
19 | CCCCCCCC/C=C\CCCCCCCCOC[C@H](COP(=O)(O)OC[C@H]1O[C@@](C#N)(c2ccc3c(N)ncnn23)[C@H](O)[C@@H]1O)OCc1cc(F)cc(C#N)c1 [Example 128, ((2R,3S,4R,5R)-5-(4-aminopyrrolo[2,1-f][1,2,4]triazin-7-yl)-5-cyano-3,4-dihydroxytetrahydrofuran-2-yl)methyl ((R)-2-((3-cyano-5-fluorobenzyl)oxy)-3-(((Z)-octadec-9-en-1-yl)oxy)propyl) hydrogen phosphate] |  |  |  |  |  |  |  | 730 | 2
